Measured values: PubChem BioAssay (NCI)
Several values for one entry are separate records, joined by “and”; a condition that tells them apart may be missing. Identical values can stand only once.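 All cell lines were grown in 96-well plates and treated with compound for 48 hours. Abbreviation: GI50, concentration required for 50% inhibition of growth. TGI denotes the concentration required for complete inhibition of growth.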

Assays:
Assay in all cases: DTP human tumour cell line panel, 48 h
KM12 colon = tested on: KM12 colon
SK-MEL-2 melanoma = tested on: SK-MEL-2 melanoma
K-562 leukemia = tested on: K-562 leukemia
HCT-116 colon = tested on: HCT-116 colon
NCI-H460 lung = tested on: NCI-H460 lung
M14 melanoma = tested on: M14 melanoma
SF-295 CNS = tested on: SF-295 CNS
SK-OV-3 ovarian = tested on: SK-OV-3 ovarian
SK-MEL-28 melanoma = tested on: SK-MEL-28 melanoma
U251 CNS = tested on: U251 CNS

COc1ccc(OC)c(C(=O)c2oc3ccc(Br)cc3c2N)c1
GI50 (KM12 colon): 0.348 µM | TGI (KM12 colon): 18.4 µM | GI50 (SK-MEL-2 melanoma): 0.357 µM | TGI (SK-MEL-2 melanoma): 4.34 µM | GI50 (K-562 leukemia): 0.082 µM | TGI (K-562 leukemia): 35.2 µM | GI50 (HCT-116 colon): 0.346 µM | TGI (HCT-116 colon): 13.9 µM | GI50 (NCI-H460 lung): 0.375 µM | TGI (NCI-H460 lung): 12.4 µM | GI50 (M14 melanoma): 0.303 µM | TGI (M14 melanoma): 16.3 µM | GI50 (SF-295 CNS): 0.286 µM | TGI (SF-295 CNS): 2.61 µM | GI50 (SK-OV-3 ovarian): 0.515 µM | TGI (SK-OV-3 ovarian): 7.07 µM | GI50 (SK-MEL-28 melanoma): 0.61 µM | TGI (SK-MEL-28 melanoma): 26.2 µM | GI50 (U251 CNS): 0.397 µM | TGI (U251 CNS): 16.4 µM

CCC(=O)c1c(C(F)(F)F)n([O-])c2ccc(C)cc2[n+]1=O
GI50 (KM12 colon): 4.99 µM | TGI (KM12 colon): 14.9 µM | GI50 (SK-MEL-2 melanoma): 8.35 µM | TGI (SK-MEL-2 melanoma): > 50 µM | GI50 (K-562 leukemia): 3.4 µM | TGI (K-562 leukemia): > 50 µM | GI50 (HCT-116 colon): 13.8 µM | TGI (HCT-116 colon): > 50 µM | GI50 (NCI-H460 lung): 3.95 µM | TGI (NCI-H460 lung): 18.3 µM | GI50 (M14 melanoma): 15.3 µM | TGI (M14 melanoma): > 50 µM | GI50 (SF-295 CNS): 3.93 µM | TGI (SF-295 CNS): 15.8 µM | GI50 (SK-OV-3 ovarian): 8.45 µM | TGI (SK-OV-3 ovarian): 49.3 µM | GI50 (SK-MEL-28 melanoma): 28.2 µM | TGI (SK-MEL-28 melanoma): > 50 µM | GI50 (U251 CNS): 10.7 µM | TGI (U251 CNS): > 50 µM

O=C(O)[C@@H]1CCCCN1Cc1cc2cc3c(cc2c2cc(OCc4ccccc4)ccc12)OCO3
GI50 (KM12 colon): 4.24 µM | TGI (KM12 colon): 25.5 µM | GI50 (SK-MEL-2 melanoma): 15.6 µM | TGI (SK-MEL-2 melanoma): 37.4 µM | GI50 (K-562 leukemia): 36.7 µM | TGI (K-562 leukemia): > 100 µM | GI50 (HCT-116 colon): 17.4 µM | TGI (HCT-116 colon): 31.1 µM | GI50 (NCI-H460 lung): 1.49 µM | TGI (NCI-H460 lung): 3.39 µM | GI50 (M14 melanoma): 16.5 µM | TGI (M14 melanoma): 30.4 µM | GI50 (SF-295 CNS): 1.95 µM | TGI (SF-295 CNS): 8.3 µM | GI50 (SK-OV-3 ovarian): 6.47 µM | TGI (SK-OV-3 ovarian): 34.3 µM | GI50 (SK-MEL-28 melanoma): 2.21 µM | TGI (SK-MEL-28 melanoma): 7.28 µM | GI50 (U251 CNS): 3.8 µM | TGI (U251 CNS): 15.2 µM

COc1ccc(C2SCC(=O)N2NC(=O)Nc2c(C)nc3ccccn23)cc1 (centres undefined)
GI50 (KM12 colon): > 100 µM | TGI (KM12 colon): > 100 µM | GI50 (SK-MEL-2 melanoma): 41.8 µM | TGI (SK-MEL-2 melanoma): > 100 µM | GI50 (K-562 leukemia): > 100 µM | TGI (K-562 leukemia): > 100 µM | GI50 (HCT-116 colon): 17.1 µM | TGI (HCT-116 colon): 42.8 µM | GI50 (NCI-H460 lung): 90.5 µM | TGI (NCI-H460 lung): > 100 µM | GI50 (M14 melanoma): > 100 µM | TGI (M14 melanoma): > 100 µM | GI50 (SF-295 CNS): 24.5 µM | TGI (SF-295 CNS): 57.3 µM | GI50 (SK-OV-3 ovarian): 24.5 µM | TGI (SK-OV-3 ovarian): 47.6 µM | GI50 (SK-MEL-28 melanoma): > 100 µM | TGI (SK-MEL-28 melanoma): > 100 µM | GI50 (U251 CNS): 13.8 µM | TGI (U251 CNS): 27.9 µM

CC(C)(C)c1ccc(O)c(CN(Cc2cc(C(C)(C)C)ccc2O)c2ccccc2)c1
TGI (KM12 colon): 66.7 µM | TGI (SK-MEL-2 melanoma): 33.3 µM | TGI (K-562 leukemia): 31.9 µM | TGI (HCT-116 colon): 33.9 µM | TGI (NCI-H460 lung): 30.9 µM | TGI (M14 melanoma): 28.2 µM | TGI (SF-295 CNS): 37.4 µM | TGI (SK-OV-3 ovarian): 84.8 µM | TGI (SK-MEL-28 melanoma): 32.4 µM | TGI (U251 CNS): 28.4 µM

CC(C)(C)c1cc(NC(=O)Cc2ccc(-c3cnc4cc(-c5cnn(CCN6CCOCC6)c5)ccc4n3)cc2)no1
TGI (KM12 colon): 50 µM and > 100 µM and > 3 µM | GI50 (SK-MEL-2 melanoma): 0.347 µM and 0.42 µM and 0.0569 µM | TGI (SK-MEL-2 melanoma): 50 µM and > 100 µM and > 2.53 µM | GI50 (K-562 leukemia): 0.216 µM and 0.307 µM and 0.0848 µM | TGI (K-562 leukemia): 50 µM and > 100 µM and > 3 µM | GI50 (HCT-116 colon): 0.226 µM and 0.417 µM and 0.0705 µM | TGI (HCT-116 colon): 50 µM and > 100 µM and > 3 µM | GI50 (NCI-H460 lung): 0.181 µM and 0.32 µM and 0.0456 µM | TGI (NCI-H460 lung): 50 µM and > 100 µM and > 3 µM | GI50 (M14 melanoma): 0.202 µM and 0.37 µM and 0.0419 µM | TGI (M14 melanoma): 50 µM and > 100 µM and > 3 µM | GI50 (SF-295 CNS): 0.436 µM and 0.461 µM and 0.0839 µM | TGI (SF-295 CNS): 50 µM and > 100 µM and > 3 µM | GI50 (SK-OV-3 ovarian): 0.369 µM | TGI (SK-OV-3 ovarian): 2.66 µM | GI50 (SK-MEL-28 melanoma): 0.885 µM and 0.826 µM and 0.139 µM | TGI (SK-MEL-28 melanoma): 50 µM and > 100 µM and > 3 µM | GI50 (U251 CNS): 0.337 µM and 0.456 µM and 0.0964 µM | TGI (U251 CNS): 50 µM and > 100 µM and > 3 µM

Cc1ccc2[nH]c(C(=O)NN3C(=O)C(C)SC34CCCC(C)C4)c(-c3ccccc3)c2c1 (centres undefined)
GI50 (KM12 colon): 65.6 µM | TGI (KM12 colon): > 100 µM | GI50 (SK-MEL-2 melanoma): > 100 µM | TGI (SK-MEL-2 melanoma): > 100 µM | GI50 (K-562 leukemia): 35.1 µM | TGI (K-562 leukemia): > 100 µM | GI50 (HCT-116 colon): 75.7 µM | TGI (HCT-116 colon): > 100 µM | GI50 (NCI-H460 lung): 83.3 µM | TGI (NCI-H460 lung): > 100 µM | GI50 (M14 melanoma): > 100 µM | TGI (M14 melanoma): > 100 µM | GI50 (SF-295 CNS): 68.5 µM | TGI (SF-295 CNS): > 100 µM | GI50 (SK-OV-3 ovarian): > 100 µM | TGI (SK-OV-3 ovarian): > 100 µM | GI50 (SK-MEL-28 melanoma): > 100 µM | TGI (SK-MEL-28 melanoma): > 100 µM | GI50 (U251 CNS): 48.8 µM | TGI (U251 CNS): > 100 µM

CC[C@H](C)[C@H]1O[C@]2(C=C[C@@H]1C)C[C@@H]1C[C@@H](C/C=C(\C)[C@@H](O[C@H]3C[C@H](OC)[C@@H](O[C@H]4C[C@H](OC)[C@@H](NC)[C@H](C)O4)[C@H](C)O3)[C@@H](C)/C=C/C=C3\CO[C@@H]4[C@H](O)C(C)=C[C@@H](C(=O)O1)[C@]34O)O2
GI50 (KM12 colon): 3.1 µM | TGI (KM12 colon): 11.4 µM | GI50 (SK-MEL-2 melanoma): 2.54 µM | TGI (SK-MEL-2 melanoma): 7.07 µM | GI50 (K-562 leukemia): 1.97 µM | TGI (K-562 leukemia): 4.22 µM | GI50 (HCT-116 colon): 2 µM | TGI (HCT-116 colon): 5.12 µM | GI50 (NCI-H460 lung): 1.84 µM | TGI (NCI-H460 lung): 3.63 µM | GI50 (M14 melanoma): 1.93 µM | TGI (M14 melanoma): 3.98 µM | GI50 (SF-295 CNS): 2.6 µM | TGI (SF-295 CNS): 8.17 µM | GI50 (SK-OV-3 ovarian): 3.63 µM | TGI (SK-OV-3 ovarian): 13.9 µM | GI50 (SK-MEL-28 melanoma): 1.73 µM | TGI (SK-MEL-28 melanoma): 3.47 µM | GI50 (U251 CNS): 1.91 µM | TGI (U251 CNS): 4.07 µM

Cc1[nH]c2ccccc2c1C1Cc2ccccc2N1C(=O)/C(Cl)=C/c1ccccc1 (centres undefined)
TGI (KM12 colon): > 100 µM | TGI (SK-MEL-2 melanoma): > 100 µM | TGI (K-562 leukemia): > 100 µM | TGI (HCT-116 colon): > 100 µM | TGI (NCI-H460 lung): > 100 µM | TGI (M14 melanoma): > 100 µM | TGI (SF-295 CNS): > 100 µM | TGI (SK-OV-3 ovarian): > 100 µM | TGI (SK-MEL-28 melanoma): > 100 µM | TGI (U251 CNS): > 100 µM
